Literature values, collected in patent publication US12178814B2, “Pharmaceutical composition” (ASTELLAS PHARMA INC., priority 2019, dated 2024).

Test system: EML4 (Echinoderm microtubule associated protein like-4)-ALK (Anaplastic lymphoma kinase) fusion protein
Conditions: reported in WO2010/128659, WO2017/006855

inhibitory activity of a kinase activity of EML4-ALK fusion protein: inhibitory activity
SMILES: CCc1nc(C(N)=O)c(Nc2ccc(N3CCC(N4CCN(C)CC4)CC3)c(OC)c2)nc1NC1CCOCC1 [gilteritinib, 6-Ethyl-3-{3-methoxy-4-[4-(4-methylpiperazin-1-yl)piperidin-1-yl]anilino}-5-[(oxan-4-yl)amino]pyrazine-2-carboxamide]
